Experiment [1] deals with H3 receptors (Cavia porcellus, UniProt Q9JI35). Description: Competitive binding, displacement of [3H]α-methylhistamine, PDSP. Also noted: species or system guinea pig. The following applies: for Ki: [3H]α-methylhistamine, guinea pig cells expressing H3 receptors, NIMH PDSP, read-out: Affinity (Ki, nM) H3. On the technique in general: Displacement assays read how much labelled ligand stays bound in the presence of the test substance.

The target of experiment [2] is H1R (Homo sapiens, UniProt P35367). Description: Competitive binding, displacement of [3H]pyrilamine, PDSP. The following applies: human recombinant receptors expressed in HEK293T cells, read-out: Affinity (Ki, nM) H1.
H1R, sequence (P35367 whole entry): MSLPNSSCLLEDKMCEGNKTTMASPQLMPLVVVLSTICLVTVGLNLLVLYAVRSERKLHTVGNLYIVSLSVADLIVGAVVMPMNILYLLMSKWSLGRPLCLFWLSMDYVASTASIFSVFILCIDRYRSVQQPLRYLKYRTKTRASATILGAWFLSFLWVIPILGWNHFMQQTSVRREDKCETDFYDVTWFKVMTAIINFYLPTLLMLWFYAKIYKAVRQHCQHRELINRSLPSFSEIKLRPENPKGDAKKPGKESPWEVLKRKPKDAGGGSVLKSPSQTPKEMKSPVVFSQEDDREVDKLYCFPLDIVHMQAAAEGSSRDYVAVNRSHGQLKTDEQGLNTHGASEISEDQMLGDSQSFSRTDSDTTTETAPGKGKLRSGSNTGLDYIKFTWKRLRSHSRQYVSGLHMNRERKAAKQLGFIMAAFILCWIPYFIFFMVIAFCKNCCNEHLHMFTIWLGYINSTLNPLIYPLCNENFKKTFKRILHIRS
For experiment [3], the target named is H2R (Homo sapiens, UniProt P25021). Description: Competitive binding, displacement of [3H]tiotidine, PDSP. Conditions: human recombinant receptors expressed in HEK293T cells, read-out: Affinity (Ki, nM) H2.
H2R, sequence (P25021 whole entry): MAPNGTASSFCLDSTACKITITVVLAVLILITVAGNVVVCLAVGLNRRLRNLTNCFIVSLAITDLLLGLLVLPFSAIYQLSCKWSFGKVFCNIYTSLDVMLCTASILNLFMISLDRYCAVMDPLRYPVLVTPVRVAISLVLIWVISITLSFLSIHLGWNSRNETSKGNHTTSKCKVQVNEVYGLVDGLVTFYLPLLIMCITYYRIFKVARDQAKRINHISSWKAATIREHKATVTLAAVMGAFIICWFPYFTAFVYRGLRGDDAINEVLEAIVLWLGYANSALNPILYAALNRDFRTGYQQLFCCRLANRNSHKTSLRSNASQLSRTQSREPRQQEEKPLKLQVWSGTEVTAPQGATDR
The target in experiment [4] is cloned human H3 receptors. Also noted: method as in PMID 15634000. The following applies: [3H]α-methylhistamine; membranes of C6 cells expressing cloned human H3 receptors; read-out: Affinity (Ki, nM) H3 (lit); cited from earlier work.

Each structure is given as a SMILES string. pKi: −log10 of the molar value. Where two headings read alike, the source gives them in different places. Some results are limits rather than exact numbers.

The text below walks through data of paper PMC5530730, “^11C-Labeling of Aryl Ketones as Candidate Histamine Subtype-3 Receptor PET Radioligands through Pd(0)-Mediated ^11C-Carbonylative Coupling” (Molecules : A Journal of Synthetic Chemistry and Natural …, 2017).

H3 receptors, sequence (Q9JI35 whole entry): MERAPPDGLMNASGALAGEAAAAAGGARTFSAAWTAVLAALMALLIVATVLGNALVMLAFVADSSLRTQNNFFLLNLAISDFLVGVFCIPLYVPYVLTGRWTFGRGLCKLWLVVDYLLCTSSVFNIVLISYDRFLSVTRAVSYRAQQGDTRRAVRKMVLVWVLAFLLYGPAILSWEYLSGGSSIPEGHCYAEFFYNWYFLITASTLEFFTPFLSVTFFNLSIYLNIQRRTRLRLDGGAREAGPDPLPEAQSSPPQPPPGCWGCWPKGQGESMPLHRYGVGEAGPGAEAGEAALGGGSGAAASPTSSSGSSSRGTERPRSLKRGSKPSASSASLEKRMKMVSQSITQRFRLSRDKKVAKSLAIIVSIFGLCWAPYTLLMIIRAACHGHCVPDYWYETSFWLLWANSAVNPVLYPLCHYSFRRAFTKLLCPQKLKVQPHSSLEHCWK

In the case of `C[C@@H]1CCCN1CCc1cc2cc(C(=O)c3cc(F)cc(F)c3)ccc2o1` [Ligand 4, (R)-(3,5-Difluorophenyl)(2-(2-(2-methylpyrrolidin-1-yl)ethyl)benzofuran-5-yl)methanone], the Ki – broadly, a dissociation constant, usually derived from enzyme kinetics or from competition with a known ligand – in experiment [1] is 2.9 nM; in experiment [2], over 10000 nM; in experiment [3], 630 nM; in experiment [4] it was 0.09 nM.

On to `C[C@@H]1CCCN1CCc1cc2cc(C(=O)c3cccc(F)c3)ccc2o1` [Ligand 3], for which the inhibition constant Ki in experiment [1] was 4.9 nM; in experiment [2], over 10000 nM; in experiment [3], 1370 nM; in experiment [4], 0.1 nM.

Take `C[C@@H]1CCCN1CCc1cc2cc(C(=O)c3ccc([N+](=O)[O-])cc3)ccc2o1` [Ligand 1]: the inhibitory constant (Ki) stood at 2.1 nM in experiment [1], 1030 nM in experiment [2] and 706 nM in experiment [3].

For `C[C@@H]1CCCN1CCc1cc2cc(C(=O)c3ccc(F)cc3)ccc2o1` [Ligand 2], the pKi (usually −log10 of the Ki, conventionally taken in molar units) in experiment [1] was 8.38. Further, the Ki in experiment [2] worked out at 7050 nM; in experiment [3] it was 923 nM.
